Test system: patients receiving propofol during procedural sedation
Details: 23 patients; per patient, average of the pharmacokinetic-model effect-site concentrations at end of procedure with all boluses and with the last bolus removed
Description: The start and end of the procedure were marked by the clinical staff who collected the data. The average of the “all drugs” value and the “last drug removed” value at the time of the end of the procedure constitutes, in this illustrative embodiment, an estimate of the titration threshold that the clinician aims to remain above between the start and end of the procedure.
The titration threshold for each patient was established as described in connection with FIG. 17, namely: the start and end of the procedure were marked by the clinical staff who collected the data; the end-procedure effect-site concentration, shown on the y-axis, of each patient was estimated with all drug administrations, and again without the final bolus administration; and the average of these two values was taken as the estimated titration threshold for that patient. […] The titration threshold is estimated at the time the procedure ends since the proceduralist deems it necessary to administer a final bolus in order to render the patient's sedation level sufficient to endure the procedure.

For `CC(C)c1cccc(C(C)C)c1O` [propofol], the “mean of the estimated titration thresholds (end-procedure effect-site concentration)” value was 1.72 micrograms/milliliter.

— US11972843B2, “Systems and methods for predicting adverse events and assessing level of sedation during medical procedures” (Massachusetts Institute of Technology, priority 2015, dated 2024)
